Like-named read-outs stand apart in the source and are kept apart here.
Target: T1, recombinant hAChE (Homo sapiens, UniProt P22303)
T1 construct: made in house
Assay: biochemical
From the text: A chemical library consisting of 17 500 substances was screened using the colorimetric Ellman assay and recombinant hAChE. The hydrolysis of acetylthiocholine iodide was monitored and the average slope of the positive controls was set to 100% activity. […] Molecules in Set 1 were selected to represent the chemical space according to a Principal Component Analysis (PCA) of the hits' structural and physicochemical features (see section Chemical space of AChE inhibitors, below).
The screening was performed at the Umeå Small Molecule Screening Facility currently incorporated in the screening platform of the Laboratories for Chemical Biology, Umeå (LCBU). Recombinant hAChE was expressed and purified according to previously described methods, [46]. The enzymatic activity was measured using the Ellman assay adapted to a 96-well format. The final assay volume was 200 µL and all measurements were performed in 0.2 mM 5,5′-Dithiobis(2-nitrobenzoic acid) and 1 mM acethylthiocholine iodide in 0.1 M phosphate buffer pH 8.0. […] Stock solutions were prepared in DMSO and transferred to the assay plate using a Biomek NC robotic system (BeckanCoulter). The enzymatic reaction was monitored for 120 seconds using an Infinite M200 plate-reader (Tekan) at a ligand concentration of 50 µM and temperature of 20°C. Each plate contained 80 samples, 14 positive controls and two negative controls. […] Substances reducing the activity by at least 70% were scored as hits. […] For each inhibitor, the enzymatic activity was determined at eight concentrations selected to produce a dose-response curve that was subsequently analyzed using Prism.

[1] = hits with determined crystal structures, mean ± standard deviation of 2–5 determinations, read-out: IC50

T1 sequence (P22303 32-614): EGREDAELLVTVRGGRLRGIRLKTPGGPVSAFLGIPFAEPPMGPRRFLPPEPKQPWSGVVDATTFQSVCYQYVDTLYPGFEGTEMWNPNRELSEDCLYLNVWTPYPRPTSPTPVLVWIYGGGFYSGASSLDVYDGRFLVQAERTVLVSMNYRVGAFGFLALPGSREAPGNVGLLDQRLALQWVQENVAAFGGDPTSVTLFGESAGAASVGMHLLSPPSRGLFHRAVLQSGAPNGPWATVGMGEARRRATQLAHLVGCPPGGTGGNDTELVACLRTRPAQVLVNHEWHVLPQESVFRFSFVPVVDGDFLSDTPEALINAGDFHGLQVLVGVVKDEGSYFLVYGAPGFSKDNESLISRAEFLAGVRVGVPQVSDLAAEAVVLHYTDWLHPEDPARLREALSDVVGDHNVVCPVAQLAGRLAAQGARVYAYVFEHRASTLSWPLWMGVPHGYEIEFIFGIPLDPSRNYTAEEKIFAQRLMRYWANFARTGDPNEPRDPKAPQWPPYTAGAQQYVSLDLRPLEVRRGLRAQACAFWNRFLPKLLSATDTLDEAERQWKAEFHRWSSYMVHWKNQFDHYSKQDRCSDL

Row | Compound | IC50 [1] [nM] | IC50 [nM]
1 | CCN(CC)CCCNc1c([N+](=O)[O-])c(=O)n(C)c2ccccc12 [Compound C6905] | 2000 ± 100 | 
2 | COc1ccc(C(=O)NC(=S)Nc2ccc(N3CCN(C)CC3)cc2)cc1[N+](=O)[O-] [Compound C7643] | 540 ± 30 | 
3 | COC(=O)CSc1nc(C)c(C)c(C)c1C#N [Compound C5231] | 36000 ± 6300 | 
4 | CCN1CCCC1CNC(=O)c1cc([N+](=O)[O-])c(N(C)C)cc1OC (centres unmarked) [Compound C5685] |  | 1300 ± 100
5 | CCN(CC)CCCNc1oc(-c2ccc(Cl)cc2)nc1C#N [Compound C7491] | 21400 ± 1700 | 

Reference: publication PMC3227566, “Targeting Acetylcholinesterase: Identification of Chemical Leads by High Throughput Screening, Structure Determination and Molecular Modeling” (PLoS ONE, 2011)
